From patent US20120178786A9, “Use of tetramic acid derivatives for controlling pests by drenching, drip application, or dip application” (priority 2006, published 2012)

Tested on: Coccus viridis
Assay: Example 11: drench of gardenia plants, Henderson-Tilton efficacy against nymphs
Assay type: in vivo
Details: 48 mg active substance/1 potting compost, 20 G
Method: Gardenia plants cv. […] The greenhouse temperature is 27° C. The test is evaluated 7, 15, 21 and 35 days after the treatment by determining the activity against nymphs on the leaves with the aid of the Henderson-Tilton method.

CN/C(=N/CC1CCOC1)N[N+](=O)[O-] (stereo not shown) [Dinotefuran, dinotefuran]
Henderson-Tilton efficacy (%) against Coccus viridis (7 d after treatment): 0% | Henderson-Tilton efficacy (%) against Coccus viridis (15 d after treatment): 57% | Henderson-Tilton efficacy (%) against Coccus viridis (21 d after treatment): 85% | Henderson-Tilton efficacy (%) against Coccus viridis (35 d after treatment): 91%
